Earlier results in US20260216201A1 (priority 2025, published 2026).

Conditions: n-octanol/buffer pH 7.4

apparent partition coefficient (log P): 0.1
Structure (SMILES): Cc1cnc(NC(=O)C2=C(O)c3ccccc3S(=O)(=O)N2C)s1 [Meloxicam, 4-hydroxy-2-methyl-N-(5 methyl-2-thiazolyl)-2H-1,2-benzothiazine-3-carboxamide-1,1-dioxide]
